Measurements from the CheMixHub ionic liquid set.

Assay: xn = mol fraction of the nth substance listed
Details: 101 kPa, frequency 0.001 MHz

CCCCCCCCCCCCCCn1cc[n+](C)c1.[Br-] + CC[N+](CC)(CC)CC.[Br-] + O
electrical conductivity [S/m]
Details | 298.15 K | 308.15 K
x1 = 4.74e-06, x2 = 0 | 0.00249 | 0.00401
x1 = 4.74e-06, x2 = 1.802e-05 | 0.0133 | 0.0165
x1 = 4.74e-06, x2 = 3.604e-05 | 0.0213 | 0.0264
x1 = 4.74e-06, x2 = 9.009e-05 | 0.0427 | 0.053
x1 = 9.35e-06, x2 = 0 | 0.00459 | 0.00671
x1 = 9.35e-06, x2 = 1.802e-05 | 0.0152 | 0.0187
x1 = 9.36e-06, x2 = 3.604e-05 | 0.023 | 0.0283
x1 = 9.36e-06, x2 = 9.009e-05 | 0.0444 | 0.0542
x1 = 1.386e-05, x2 = 0 | 0.0065 | 0.0093
x1 = 1.386e-05, x2 = 1.802e-05 | 0.017 | 0.0209
x1 = 1.386e-05, x2 = 3.604e-05 | 0.0249 | 0.0306
x1 = 1.387e-05, x2 = 9.009e-05 | 0.0459 | 0.056
x1 = 1.825e-05, x2 = 0 | 0.00834 | 0.011
x1 = 1.826e-05, x2 = 1.802e-05 | 0.0185 | 0.0231
x1 = 1.826e-05, x2 = 3.604e-05 | 0.0264 | 0.0325
x1 = 1.827e-05, x2 = 9.009e-05 | 0.0472 | 0.058
x1 = 2.252e-05, x2 = 0 | 0.0101 | 0.0135
x1 = 2.253e-05, x2 = 1.802e-05 | 0.0201 | 0.0251
x1 = 2.253e-05, x2 = 3.604e-05 | 0.0281 | 0.0343
x1 = 2.255e-05, x2 = 9.009e-05 | 0.0479 | 0.0594
x1 = 2.669e-05, x2 = 0 | 0.0119 | 0.0154
x1 = 2.669e-05, x2 = 1.802e-05 | 0.0216 | 0.0268
x1 = 2.67e-05, x2 = 3.604e-05 | 0.0295 | 0.0364
x1 = 2.671e-05, x2 = 9.009e-05 | 0.049 | 0.0611
x1 = 3.076e-05, x2 = 0 | 0.0136 | 0.0173
x1 = 3.077e-05, x2 = 1.802e-05 | 0.0232 | 0.0286
x1 = 3.077e-05, x2 = 3.604e-05 | 0.0307 | 0.0381
x1 = 3.079e-05, x2 = 9.009e-05 | 0.0493 | 0.0618
x1 = 3.474e-05, x2 = 0 | 0.0152 | 0.0199
x1 = 3.475e-05, x2 = 1.802e-05 | 0.0248 | 0.0305
x1 = 3.475e-05, x2 = 3.604e-05 | 0.0315 | 0.0399
x1 = 3.477e-05, x2 = 9.009e-05 | 0.0495 | 0.0619
x1 = 3.862e-05, x2 = 0 | 0.0167 | 0.0218
x1 = 3.862e-05, x2 = 1.802e-05 | 0.0261 | 0.0324
x1 = 3.863e-05, x2 = 3.604e-05 | 0.0318 | 0.0405
x1 = 3.865e-05, x2 = 9.009e-05 | 0.0494 | 0.0621
x1 = 4.24e-05, x2 = 0 | 0.0183 | 0.0238
x1 = 4.241e-05, x2 = 1.802e-05 | 0.0265 | 0.0333
x1 = 4.242e-05, x2 = 3.604e-05 | 0.0322 | 0.0409
x1 = 4.244e-05, x2 = 9.009e-05 | 0.0497 | 0.0622
x1 = 4.613e-05, x2 = 0 | 0.0192 | 0.0252
x1 = 4.614e-05, x2 = 1.802e-05 | 0.0271 | 0.034
x1 = 4.615e-05, x2 = 3.604e-05 | 0.0326 | 0.0414
x1 = 4.617e-05, x2 = 9.009e-05 | 0.0499 | 0.0623
x1 = 4.973e-05, x2 = 0 | 0.0199 | 0.0265
x1 = 4.974e-05, x2 = 1.802e-05 | 0.0274 | 0.0345
x1 = 4.975e-05, x2 = 3.604e-05 | 0.0329 | 0.0419
x1 = 4.978e-05, x2 = 9.009e-05 | 0.05 | 0.0627
x1 = 5.334e-05, x2 = 0 | 0.0204 | –
x1 = 5.335e-05, x2 = 1.802e-05 | 0.0278 | –
x1 = 5.336e-05, x2 = 3.604e-05 | 0.0333 | –
x1 = 5.339e-05, x2 = 9.009e-05 | 0.0501 | –
x1 = 5.676e-05, x2 = 0 | 0.0209 | –
x1 = 5.677e-05, x2 = 1.802e-05 | 0.0283 | –
x1 = 5.678e-05, x2 = 3.604e-05 | 0.0336 | –
x1 = 5.681e-05, x2 = 9.009e-05 | 0.0503 | –
x1 = 6e-05, x2 = 0 | 0.0213 | –
x1 = 6.001e-05, x2 = 1.802e-05 | 0.0286 | –
x1 = 6.003e-05, x2 = 3.604e-05 | 0.0338 | –
x1 = 6.006e-05, x2 = 9.009e-05 | 0.0505 | –
x1 = 6.343e-05, x2 = 0 | 0.0217 | –
x1 = 6.344e-05, x2 = 1.802e-05 | 0.0289 | –
x1 = 6.345e-05, x2 = 3.604e-05 | 0.0341 | –
x1 = 6.349e-05, x2 = 9.009e-05 | 0.0507 | –
x1 = 6.667e-05, x2 = 0 | 0.0221 | –
x1 = 6.668e-05, x2 = 1.802e-05 | 0.0293 | –
x1 = 6.67e-05, x2 = 3.604e-05 | 0.0344 | –
x1 = 6.673e-05, x2 = 9.009e-05 | 0.0508 | –
x1 = 6.973e-05, x2 = 0 | 0.0225 | –
x1 = 6.975e-05, x2 = 1.802e-05 | 0.0296 | –
x1 = 6.976e-05, x2 = 3.604e-05 | 0.0346 | –
x1 = 6.98e-05, x2 = 9.009e-05 | 0.0511 | –
x1 = 7.28e-05, x2 = 0 | 0.0229 | –
x1 = 7.281e-05, x2 = 1.802e-05 | 0.0299 | –
x1 = 7.282e-05, x2 = 3.604e-05 | 0.0349 | –
x1 = 7.287e-05, x2 = 9.009e-05 | 0.0512 | –
x1 = 7.586e-05, x2 = 0 | 0.0233 | –
x1 = 7.587e-05, x2 = 1.802e-05 | 0.0302 | –
x1 = 7.589e-05, x2 = 3.604e-05 | 0.0351 | –
x1 = 7.593e-05, x2 = 9.009e-05 | 0.0516 | –
x1 = 7.892e-05, x2 = 0 | 0.0236 | –
x1 = 7.894e-05, x2 = 1.802e-05 | 0.0304 | –
x1 = 7.895e-05, x2 = 3.604e-05 | 0.0353 | –
x1 = 7.9e-05, x2 = 9.008e-05 | 0.0519 | –
x1 = 8.18e-05, x2 = 0 | 0.024 | –
x1 = 8.182e-05, x2 = 1.802e-05 | 0.0307 | –
x1 = 8.184e-05, x2 = 3.604e-05 | 0.0356 | –
x1 = 8.188e-05, x2 = 9.008e-05 | 0.0522 | –
x1 = 8.451e-05, x2 = 0 | 0.0243 | –
x1 = 8.452e-05, x2 = 1.802e-05 | 0.0308 | –
x1 = 8.454e-05, x2 = 3.604e-05 | 0.0358 | –
x1 = 8.459e-05, x2 = 9.008e-05 | 0.0524 | –
x1 = 8.739e-05, x2 = 0 | 0.0246 | –
x1 = 8.741e-05, x2 = 1.802e-05 | 0.0312 | –
x1 = 8.742e-05, x2 = 3.604e-05 | 0.036 | –
x1 = 8.747e-05, x2 = 9.008e-05 | 0.0526 | –
